Measurements: PubChem BioAssay (NCI)
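Protocol summary: plate cells (96-well), add compound at 5 concentrations, incubate 48 h, interpolate endpoints linearly. Here, GI50 denotes the concentration required for 50% inhibition of growth. TGI marks complete inhibition of growth.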

Key:
Assay in all cases: NCI anticancer screen, dose series, 48 h
[1] = test system: SF-539 CNS
[2] = test system: ACHN renal
[3] = test system: SW-620 colon
[4] = test system: SR leukemia
[5] = test system: SK-MEL-2 melanoma
[6] = test system: NCI-H23 lung
[7] = test system: SK-OV-3 ovarian
[8] = test system: HCC-2998 colon
[9] = test system: BT-549 breast
[10] = test system: PC-3 prostate

COC(=O)c1[nH]c(=S)[nH]c(=O)c1-c1ccc(Cl)cc1
TGI [1]: > 50 µM
TGI [2]: > 50 µM
TGI [3]: > 50 µM
TGI [4]: > 50 µM
TGI [5]: > 50 µM
TGI [6]: > 50 µM
TGI [7]: > 50 µM
TGI [8]: > 50 µM

CCCC(O)[C@@H](O)c1ccc2c(c1O)C(=O)c1c(OC)cccc1C2=O (stereo partly specified)
TGI [1]: 58.8 µM
TGI [2]: > 100 µM
TGI [3]: > 100 µM
TGI [4]: 66.6 µM
TGI [5]: > 100 µM
TGI [6]: > 100 µM
TGI [7]: > 100 µM
TGI [8]: 68.1 µM

Nc1cc(=O)[nH]c(SC2=NC(N)CC(O)C2)n1 (stereo unspecified)
TGI [1]: > 100 µM
TGI [2]: > 100 µM
TGI [3]: > 100 µM
TGI [4]: > 100 µM
TGI [5]: > 100 µM
TGI [6]: > 100 µM
TGI [7]: > 100 µM
TGI [8]: > 100 µM

c1ccc2[nH]c(-c3ccc(N4CCN(c5ccc(-c6nc7ccccc7[nH]6)cc5)CC4)cc3)nc2c1
GI50 [1]: > 100 µM
TGI [1]: > 100 µM
GI50 [9]: > 100 µM
TGI [9]: > 100 µM
GI50 [2]: > 100 µM
TGI [2]: > 100 µM
GI50 [3]: 58 µM
TGI [3]: > 100 µM
GI50 [4]: 3.08 µM
TGI [4]: 6.85 µM
GI50 [10]: > 100 µM
TGI [10]: > 100 µM
GI50 [6]: > 100 µM
TGI [6]: > 100 µM
GI50 [8]: > 100 µM
TGI [8]: > 100 µM

Nc1ncnc2sc(=S)c3c(c12)CCC3
GI50 [1]: 17 µM
TGI [1]: 52.8 µM
GI50 [9]: 22.5 µM
TGI [9]: 68.2 µM
GI50 [2]: 26.3 µM
TGI [2]: > 100 µM
GI50 [3]: 33.5 µM
TGI [3]: > 100 µM
GI50 [5]: 81.8 µM
TGI [5]: > 100 µM
GI50 [10]: 32.1 µM
TGI [10]: > 100 µM
GI50 [6]: 21.1 µM
TGI [6]: 56.8 µM
GI50 [7]: 89 µM
TGI [7]: > 100 µM
GI50 [8]: 35 µM
TGI [8]: > 100 µM

CCOC(=O)c1c2c(n(CC(C)C)c1C)-c1nc[nH]c1C(=O)C2=O
GI50 [1]: 14 µM
TGI [1]: 26.9 µM
GI50 [9]: 16.4 µM
TGI [9]: 30.4 µM
GI50 [2]: 14.2 µM
TGI [2]: 27.2 µM
GI50 [3]: 20.8 µM
TGI [3]: 39.1 µM
GI50 [4]: 0.384 µM
TGI [4]: 2.15 µM
GI50 [5]: 19.4 µM
TGI [5]: 34 µM
GI50 [7]: 22.4 µM
TGI [7]: 37.3 µM

COc1ccc2c(c1)CCC1C2CCC2(C)C1CCC2(O)CNC(=O)CCCCC1CCSS1 (stereo unspecified)
GI50 [1]: 18.3 µM
TGI [1]: 90.8 µM
GI50 [9]: 19.3 µM
TGI [9]: 98.4 µM
GI50 [2]: 53.6 µM
TGI [2]: > 100 µM
GI50 [3]: 12.4 µM
TGI [3]: > 100 µM
GI50 [5]: 33.2 µM
TGI [5]: > 100 µM
GI50 [10]: 5.91 µM
TGI [10]: > 100 µM
GI50 [6]: 20.8 µM
TGI [6]: > 100 µM
GI50 [8]: 2.13 µM
TGI [8]: 5.52 µM

Cc1ccc2[nH]c(C(=O)NN3C(=O)CSC34CCCCC4C)c(-c3ccccc3)c2c1 (stereo unspecified)
GI50 [1]: 19.5 µM
TGI [1]: 38.4 µM
GI50 [9]: 20 µM
TGI [9]: 36.7 µM
GI50 [2]: 17.3 µM
TGI [2]: 33.3 µM
GI50 [3]: 23.8 µM
TGI [3]: 60.1 µM
GI50 [5]: 20.9 µM
TGI [5]: 38.7 µM
GI50 [10]: 12.5 µM
TGI [10]: 30.1 µM
GI50 [6]: 17 µM
TGI [6]: 33.2 µM
GI50 [7]: 21.4 µM
TGI [7]: 47.1 µM
GI50 [8]: 16.4 µM
TGI [8]: 31.6 µM
